Laboratory results reported in PMC7069944, “Amino acid levels determine metabolism and CYP450 function of hepatocytes and hepatoma cell lines” (Nature Communications, 2020).
“And” between values parts separate entries of the source, which are not always exact repeats. Equal entries are not always repeated. Where two headings read alike, the source gives them in different places.

Experiments:
CYP3A4 [1] = target: CYP3A4 (Homo sapiens, UniProt P08684); details: HepG2 AAGLY D32 and HC6X AAGLY D40, single exposure
Method: (§1) Comparative CYP450 biotransformation studies were performed to assess functionality across a number of gold standard primary hepatocyte models. Cryopreserved PHHs were obtained from a single donor (Lonza, Breda, The Netherlands) or pooled donors (Thermo Scientific, Merelbeke, Belgium). Upon thawing, cell suspensions (0.5 million cells/ml) were prepared in WE medium using 24-well plates (0.5 ml/well) on an orbital shaker and metabolization activity was assessed following a 15 min equilibration period. Human Hepatopac® plates were obtained from Ascendance Biotechnology (Ascendance Biotechnology, Boston USA) and cultures were maintained following instructions of the provider. Spheroid cultures were generated in-house as essentially described by Bell et al.[42].
(§2) Finally, the system was re-equilibrated at 60% (A)/40% (B) for an additional 0.7 min. Total run time was 3.8 min and 2 µl aliquots were injected onto the system for analysis.
(§3) All data collection, processing, and analysis was performed with Analyst® software (v1.6.2. SCIEX).

CYP3A4 [2] = test: qRT-PCR CYP3A4 expression in HepG2; assay type: cell-based, human; details: single amino acid supplementation, relative to CTL (CTL values equal HepG2 D7 CTL)
Method: AA supplementation was accomplished through the addition of MEM Non-Essential Amino Acids Solution (100 × ) and MEM Amino Acids Solution (50 × ) (Thermo Scientific) to the culture medium. For AA1, AA2, and AA3 medium, we added respectively 2 ml, 8 ml, and 16 ml of non-essential AA solution and 1 ml, 4 ml, and 8 ml of essential AA solution per 100 ml of LDM, with or without glucose. Culture medium was then made PH neutral through the addition of NaOH. […] PSC derived HLCs were differentiated in LDM until D12. AA supplementation (AA1, AA2 and AA3) was performed from day 12 until day 20, 30 or 40 of differentiation. […] HepG2, HUH7.5, Hep3B, HHL5, and HEK293 cells were maintained in DMEM supplemented with 10% fetal bovine serum as shown in Supplementary Table 4. AA supplementation consisted of addition of 16 ml of non-essential AA mix and 8 ml of essential AA mix per 100 ml of medium and a further addition of 20 g/l of any of the single AAs. […] PHHs were maintained in a medium composition that was based on WE as detailed in ref. [67].
RNA extraction was performed using the GenElute Mammalian Total RNA Miniprep Kit (Sigma-Aldrich). Then, genomic DNA was eliminated using the On-Column DNase I Digestion kit (Sigma-Aldrich). Last, 1 µg of RNA was transcribed to cDNA using the Superscript III First-Strand synthesis (Invitrogen). Gene expression analysis was performed using the Platinum SYBR green qPCR supermix-UDG kit (Invitrogen) in a ViiA 7 Real-Time PCR instrument (Thermo Scientific, Waltham, MA). The sequences of all used qRT-PCR primers are listed in Supplementary Table 6. Of these, ribosomal protein L19 (RPL19) was used as a housekeeping gene for normalization.

[3] = test system: cells cultured in AAGLY medium; test: Single-exposure toxicity, summary value of this study (Boon et al); assay type: cell-based; details: Homo sapiens, single 24 h exposure
Method: To evaluate the ability to predict hepatotoxicity, we adapted the differentiation assays to a 384-well format. […] As a readout, we evaluated cell viability by resazurin conversion and correlated the results to therapeutic doses (Cmax values).
PSCs were differentiated in a 384-well format. […] As a negative control, 41 wells were left untreated. HepG2 were seeded at 40,000 cells per well. […] Cells were fixed with 4% PFA. […] Drugs were administrated after 8 h of attachment.

[4] = test system: Co-culture of endothelial cells and mouse hepatocytes; parameters: method as in ref 12 (a number printed in a supplementary file, which may have a reference list of its own: not looked up in the article's list); details: 36h, Cell count; cited from earlier work
PHH = test system: PHH; parameters: method as in ref 15 (a number printed in a supplementary file, which may have a reference list of its own: not looked up in the article's list); details: 24h, ALT release; cited from earlier work
HLCs = test: Single-exposure toxicity, Hoechst/DRAQ7 live cell number, HLCs
Method: (§4) PSCs were differentiated in a 384-well format. Cells were treated with 14 different concentrations of compounds in 6 repeats. As a negative control, 41 wells were left untreated. HepG2 were seeded at 40,000 cells per well. For control conditions, HepG2 were exposed after 2 days of culture. […] Cells were fixed with 4% PFA. Imaging was done using an Operetta High-Content Imaging System (Perkin Elmer) and image analysis was performed using Harmony software (Perkin Elmer). […] As a positive control, 1 donor of PHHs was seeded at 10,000 cells per well. Drugs were administrated after 8 h of attachment.

[5] = test system: Co-culture of PHHs and fibroblasts; parameters: method as in ref 4 (a number printed in a supplementary file, which may have a reference list of its own: not looked up in the article's list); details: 24h, ATP; cited from earlier work
PHHs = test: Single-exposure toxicity, Hoechst/DRAQ7 live cell number, PHH 12 h; details: Homo sapiens, read-out: IC50 single exposure, Mean
Method: as §4

[6] = test system: HC6X in the H9-ESC background; test: Single-exposure toxicity, Hoechst/DRAQ7 live cell number, HC6X (H9-ESC); details: for IC50: Homo sapiens
Method: as §4

HepG2 = test: Single-exposure toxicity, Hoechst/DRAQ7 live cell number, HepG2; details: for IC50: Homo sapiens
Method: as §4

Cryopreserved PHH = test system: Cryopreserved PHH; parameters: method as in ref 16 (a number printed in a supplementary file, which may have a reference list of its own: not looked up in the article's list); details: 48h, ATP; cited from earlier work
Spheroid of PHHs = test system: Spheroid of PHHs; parameters: method as in ref 3 (a number printed in a supplementary file, which may have a reference list of its own: not looked up in the article's list); details: 48h, ATP; cited from earlier work
[7] = test system: HC6X in the BJ1-iPSC background; test: Single-exposure toxicity, Hoechst/DRAQ7 live cell number, HC6X (BJ1-iPSC); details: Homo sapiens
Method: as §4

Rat hepatocytes = test system: Rat hepatocytes; parameters: method as in ref 17 (a number printed in a supplementary file, which may have a reference list of its own: not looked up in the article's list); details: 24h, MTT; cited from earlier work
CYP3A4 [8] = test: CYP3A4-dependent BFC metabolization (fluorometric probe); assay type: in vitro ADME, human; details: for BFC metabolisation: Figure 2B, replicate values; for BFC metabolisation (pmol/h/1000000cells): Figure 1D
Method: Urea concentrations in the medium were analyzed after 24 h of culture using the QuantiChromTM Urea Assay Kit (BioAssay Systems DIUR-500) according to the manufacturer’s instructions. […] Metabolization was assessed for 1 h and 4 h incubation times. […] The albumin secretion rate was quantified using the human albumin ELISA quantification kit (Bethyl) according to instructions provided in the kit.

CYP2D6 = CYP2D6 (Homo sapiens, UniProt P10635); test: Drug biotransformation cocktail: dextromethorphan
Method: as §1, §2, §3

CYP2D6, sequence (P10635 whole entry): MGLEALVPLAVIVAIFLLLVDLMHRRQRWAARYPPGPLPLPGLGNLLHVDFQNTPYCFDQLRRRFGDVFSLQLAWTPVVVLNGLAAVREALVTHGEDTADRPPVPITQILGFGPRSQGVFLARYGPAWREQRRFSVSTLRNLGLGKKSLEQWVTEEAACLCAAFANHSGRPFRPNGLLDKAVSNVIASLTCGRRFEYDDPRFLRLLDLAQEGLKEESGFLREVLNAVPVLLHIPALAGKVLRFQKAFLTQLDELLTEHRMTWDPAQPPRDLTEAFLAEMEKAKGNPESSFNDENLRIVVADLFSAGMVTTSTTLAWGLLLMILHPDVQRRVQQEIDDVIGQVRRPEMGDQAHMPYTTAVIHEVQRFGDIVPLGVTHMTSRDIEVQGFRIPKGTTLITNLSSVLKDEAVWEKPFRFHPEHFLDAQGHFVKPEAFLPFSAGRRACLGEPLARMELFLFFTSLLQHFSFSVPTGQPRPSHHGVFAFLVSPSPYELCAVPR
CYP3A4 (Homo sapiens, UniProt P08684), sequence (P08684 whole entry): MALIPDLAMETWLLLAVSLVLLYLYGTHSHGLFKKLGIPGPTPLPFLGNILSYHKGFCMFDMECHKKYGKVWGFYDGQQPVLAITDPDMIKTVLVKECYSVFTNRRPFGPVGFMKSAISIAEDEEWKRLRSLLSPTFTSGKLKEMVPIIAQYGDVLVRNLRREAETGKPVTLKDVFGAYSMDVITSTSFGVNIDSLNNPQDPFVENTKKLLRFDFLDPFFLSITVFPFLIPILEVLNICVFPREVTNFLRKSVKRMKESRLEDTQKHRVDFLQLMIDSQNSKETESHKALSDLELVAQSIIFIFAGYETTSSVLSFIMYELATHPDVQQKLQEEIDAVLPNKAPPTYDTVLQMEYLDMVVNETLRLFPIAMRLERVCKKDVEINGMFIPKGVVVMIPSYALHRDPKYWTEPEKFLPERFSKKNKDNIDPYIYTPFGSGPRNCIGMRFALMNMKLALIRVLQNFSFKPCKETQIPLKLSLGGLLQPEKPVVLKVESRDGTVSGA

Cc1ncc2n1-c1ccc(Cl)cc1C(c1ccccc1F)=NC2 [midazolam]
midazolam biotransformation compared with PHHs (CYP3A4 [1]): equal to that of PHHs

C[C@H](N)C(=O)O [ALA, alanine]
Relative CYP3A4 expression (CYP3A4 [2]): 353.956 and 394.102 and 280.416

CC(=O)Nc1ccc(O)cc1 [APAP, acetaminophen]
IC50 [3]: 10 mM
IC50 [4]: 7 mM
IC50 (PHH): ~10 mM
IC50 single exposure, Mean (HLCs; H9 HLC AAGLY D40): No toxicity
IC50 single exposure, Mean (HLCs; H9 HLC LDM D40): No toxicity
toxicity after single administration (HLCs; HLC cultured in basal medium): no toxicity
IC50 [5]: 5.5 mM
IC50 (PHHs): 13.3 mM
toxicity after single administration ([6]; HC6X cultured in basal medium): no toxicity
IC50 ([6]; read-out: IC50 single exposure, Mean, H9 HC6X AAGLY D40): 12.1 mM
IC50 ([6]; read-out: IC50 single exposure, Mean, H9 HC6X AAGLY D50): 9.91 mM
IC50 single exposure, Mean (HepG2; HepG2 CTL D7): no toxicity
toxicity after single administration (HepG2; HepG2 cultured in basal medium): no toxicity
IC50 (HepG2; HepG2, read-out: IC50 single exposure, Mean, HepG2 AAGLY D30): 11.9 mM
IC50 (HepG2; HepG2, read-out: IC50 single exposure, Mean, HepG2 AAGLY D40): 12 mM
IC50 (Cryopreserved PHH): > 25 mM
IC50 (Spheroid of PHHs): 10 mM
IC50 ([7]; read-out: IC50 single exposure, Mean, BJ1 HC6X AAGLY D40): 12 mM
IC50 ([7]; read-out: IC50 single exposure, Mean, BJ1 HC6X AAGLY D50): 8.66 mM
IC50 (Rat hepatocytes): 7.6 mM

O=c1cc(C(F)(F)F)c2ccc(OCc3ccccc3)cc2o1 [BFC, 7-benzyloxy-4-trifluoromethylcoumarin]
relative BFC metabolsiation (compared to PHH 0h) (CYP3A4 [8]; HC3X AAGLY D20): 13.5398 and 11.6179 and 10.8677
relative BFC metabolsiation (compared to PHH 0h) (CYP3A4 [8]; HC3X AAGLY D40): 91.111 and 105.714 and 91
relative BFC metabolsiation (compared to PHH 0h) (CYP3A4 [8]; HC3X AAGLY D50): 143.333 and 136.667 and 101.19
BFC metabolisation (CYP3A4 [8]; HC3X D20): 21.4494 pmol/h/1000000 cells and 25.0015 pmol/h/1000000 cells and 28.2425 pmol/h/1000000 cells
relative BFC metabolsiation (compared to PHH 0h) (CYP3A4 [8]; HC3X LDM D20): 1.9009 and 2.216 and 2.503
relative BFC metabolsiation (compared to PHH 0h) (CYP3A4 [8]; HLC AAGLY D20): 5.305 and 4.4 and 6.066
BFC metabolisation (pmol/h/1000000cells) (CYP3A4 [8]; HLC D20): 11.7761 pmol/h/1000000cells and 11.0043 pmol/h/1000000cells and 15.6069 pmol/h/1000000cells
BFC metabolisation (CYP3A4 [8]; HLC D20): 11.7761 pmol/h/1000000 cells and 11.0043 pmol/h/1000000 cells and 15.6069 pmol/h/1000000 cells
relative BFC metabolsiation (compared to PHH 0h) (CYP3A4 [8]; HLC LDM D20): 1.044 and 0.9752 and 0.9879
relative BFC metabolsiation (compared to PHH 0h) (CYP3A4 [8]; HLC LDM D40): 4.464 and 8.743 and 7.646
relative BFC metabolsiation (compared to PHH 0h) (CYP3A4 [8]; PHH 0h): 101.025 and 82.5131 and 116.462
BFC metabolisation (pmol/h/1000000cells) (CYP3A4 [8]; PHH 0h): 1139.95 pmol/h/1000000cells and 931.065 pmol/h/1000000cells and 1314.14 pmol/h/1000000cells
BFC metabolisation (CYP3A4 [8]; PHH 0h): 1139.95 pmol/h/1000000 cells and 1031.07 pmol/h/1000000 cells and 1214.14 pmol/h/1000000 cells
relative BFC metabolsiation (compared to PHH 0h) (CYP3A4 [8]; PHH 12h): 9.941 and 9.524
BFC metabolisation (pmol/h/1000000cells) (CYP3A4 [8]; PHH 12h): 112.17 pmol/h/1000000cells and 107.467 pmol/h/1000000cells and 156.494 pmol/h/1000000cells
BFC metabolisation (CYP3A4 [8]; PHH 12h): 112.17 pmol/h/1000000 cells and 107.467 pmol/h/1000000 cells and 156.494 pmol/h/1000000 cells

COc1ccc2c(c1)[C@]13CCCC[C@@H]1[C@H](C2)N(C)CC3 [Dextrometrophan]
Dextrometrophan biotransformation (cocktail) (CYP2D6; HC6X LDM D40): 0
Dextrometrophan biotransformation (cocktail) (CYP2D6; HepG2 AAGLY D32): 0
Dextrometrophan biotransformation (cocktail) (CYP2D6; HepG2 CTL D4): 0
Dextrometrophan biotransformation (cocktail) (CYP2D6; HepaRG diff D7): 0
Dextrometrophan biotransformation (cocktail) (CYP2D6; Hepatopac): 0.5629 and 0.7098 and 0.9714
Dextrometrophan biotransformation (cocktail) (CYP2D6; PHH1): 15.8656 and 14.7 and 17.4198
